Assays:
Assay type in all cases: in vivo
[1] = tested on: larvae of the banded cucumber beetle (Diabrotica balteata); test: Diabrotica balteata spray test; settings: 168 h, 100 g/ha (=32 μg/well), after 7 days, read-out: efficacy (seedling growth)
Experimental: Diabrotica balteata—Spray Test
(§1) • Solvent: 78.0 parts by weight of acetone • 1.5 parts by weight of dimethylformamide • Emulsifier: alkylarylpolyglycol ether
(§2) To produce a suitable preparation of active compound, 1 part by weight of active compound is mixed with the stated amount of solvent, and the concentrate is diluted with water, containing an emulsifier concentration of 1000 ppm, to the desired concentration. Further test concentrations are prepared by dilution with emulsifier containing water.
Soaked wheat seeds (Triticum aestivum) are placed in a multiple well plate filled with agar and some water and are incubated for 1 day to germinate (5 seeds per well). The germinated wheat seeds are sprayed with a test solution containing the desired concentration of the active ingredient. Afterwards each unit is infected with 10-20 larvae of the banded cucumber beetle (Diabrotica balteata).
After 7 days efficacy in % is determined. 100% means all the seedlings have grown up like in the untreated, uninfected control; 0% means none of the seedlings have grown.

[2] = tested on: fall armyworm larvae (Spodoptera frugiperda); test: whole plant or invertebrate; settings: 168 h
Experimental: Spodoptera frugiperda—Spray Test
• Solvent: 78.0 parts by weight acetone • 1.5 parts by weight dimethylformamide • Emulsifier: alkylarylpolyglycol ether
as §2, with “solvents” for “solvent,”, “and” for “and the concentrate”
Maize (Zea mays) leaf sections are sprayed with a preparation of the active ingredient of the desired concentration. Once dry, the leaf sections are infested with fall armyworm larvae (Spodoptera frugiperda).
After 7 days mortality in % is determined. 100% means all caterpillars have been killed and 0% means none of the caterpillars have been killed.
Spodoptera frugiperda—Spray Test (SPODFR)
After the specified period of time, mortality in % is determined. 100% means all caterpillars have been killed and 0% means none of the caterpillars have been killed.

[3] = tested on: larvae of the southern green stink bug (Nezara viridula); test: whole plant or invertebrate; settings: 96 h
Experimental: Nezara viridula—Spray Test
as §1, §2
Barley plants (Hordeum vulgare) are sprayed with a test solution containing the desired concentration of the active ingredient and are infested with larvae of the southern green stink bug (Nezara viridula).
After 4 days mortality in % is determined. 100% means all the stink bugs have been killed; 0% means none of the stink bugs have been killed.

## C[C@H](NC(=O)c1cc(C#N)cc(OC(F)(F)F)c1)c1nc(C2CC2)nn1-c1cc(C#N)ncn1 [I-53]
[1]
  pest or weed control at 32 µg/disc, 100 g/ha: 100%

## C[C@H](NC(=O)c1cc(C(F)(F)F)cc(S(C)(=O)=O)c1)c1nc(C2CC2)nn1-c1cc(C(N)=O)ncn1 [I-108]
[2]
  mortality at 100 g/ha: 100%

## CC(C)N(C)C(=O)c1cc(-n2ncnc2[C@H](C)NC(=O)c2cc(Br)cc(OC(F)(F)C(F)F)c2)ncn1 [I-123]
[2]
  mortality at 100 g/ha: 100%

## C[C@H](NC(=O)c1cc(Br)cc(Br)c1)c1nc(C2CC2)nn1-c1cc(C(=O)N(C)C)ncn1 [I-158]
[1]
  pest or weed control at 32 µg/disc, 100 g/ha: 100%
[2]
  mortality at 100 g/ha: 100%

## C[C@H](NC(=O)c1cc(C(F)F)cc(C(F)F)c1)c1nc(C2CC2)nn1-c1cc(C(N)=O)ncn1 [I-147]
[3]
  mortality at 500 g/ha: 100%
[2]
  mortality at 100 g/ha: 100%

## C[C@H](NC(=O)c1cc(Cl)cc(OC(F)(F)C(F)(F)I)c1)c1ncnn1-c1cc(C(N)=O)ncn1 [I-114, 6-(5-{(1S)-1-[3-chloro-5-(1,1,2,2-tetrafluoro-2-iodoethoxy)benzamido]ethyl}-1H-1,2,4-triazol-1-yl)pyrimidine-4-carboxamide]
[1]
  pest or weed control at 32 µg/disc, 100 g/ha: 100%
[2]
  mortality at 100 g/ha: 100%

## CNC(=O)c1cc(-n2nc(C3CC3)nc2[C@H](C)NC(=O)c2cc(OC(F)(F)F)cc(S(C)(=O)=O)c2)ncn1 [I-155]
[3]
  mortality at 500 g/ha: 100%
[2]
  mortality at 100 g/ha: 100%

## C[C@H](NC(=O)c1cc(Br)cc(OC(F)(F)F)c1)c1nc(C2CC2)nn1-c1cc(C#N)ncn1 [I-15, 3-bromo-N-[(1S)-1-[2-(6-cyanopyrimidin-4-yl)-5-cyclopropyl-1,2,4-triazol-3-yl]ethyl]-5-(trifluoromethoxy)benzamide]
[1]
  pest or weed control at 32 µg/disc, 100 g/ha: 100%
[2]
  mortality at 100 g/ha: 100%

## C[C@H](NC(=O)c1cc(Br)cc(Br)c1)c1nc(C2CC2)nn1-c1cc(C(N)=O)ncn1 [I-145]
[1]
  pest or weed control at 32 µg/disc, 100 g/ha: 100%
[2]
  mortality at 100 g/ha: 100%

## Cc1nc([C@H](C)NC(=O)c2cc(OC(F)F)cc(OC(F)F)c2)n(-c2cc(C(=O)N(C)C(C)C)ncn2)n1 [I-100]
[2]
  mortality at 100 g/ha: 83%

## C[C@H](NC(=O)c1cc(OC(F)(F)F)cc(S(=O)(=O)C(F)(F)F)c1)c1nc(C2CC2)nn1-c1cc(C(=O)N(C)C)ncn1 [I-157]
[1]
  pest or weed control at 32 µg/disc, 100 g/ha: 100%
[2]
  mortality at 100 g/ha: 100%

## C[C@H](NC(=O)c1cc(Br)cc(OC(F)F)c1)c1nc(C2CC2)nn1-c1cc(C(N)=O)ncn1 [I-104]
[1]
  pest or weed control at 32 µg/disc, 100 g/ha: 100%
[2]
  mortality at 100 g/ha: 100%

## Cc1nc([C@H](C)NC(=O)c2cc(Br)cc(OC(F)F)c2)n(-c2cc(C#N)ncn2)n1 [I-26]
[1]
  pest or weed control at 32 µg/disc, 100 g/ha: 100%
[2]
  mortality at 100 g/ha: 100%

## Cc1nc([C@H](C)NC(=O)c2cc(Cl)cc(S(=O)(=O)C(F)F)c2)n(-c2cc(C#N)ncn2)n1 [I-27]
[1]
  pest or weed control at 32 µg/disc, 100 g/ha: 100%
[2]
  mortality at 100 g/ha: 100%

## C[C@H](NC(=O)c1cc(Cl)cc(S(=O)(=O)C(F)F)c1)c1nc(C2CC2)nn1-c1cc(C(N)=O)ncn1 [I-151]
[2]
  mortality at 100 g/ha: 83%

## C[C@H](NC(=O)c1cc(OC(F)(F)F)cc(C2CC2)c1)c1nc(C2CC2)nn1-c1cc(C(N)=O)ncn1 [I-146]
[1]
  pest or weed control at 32 µg/disc, 100 g/ha: 100%
[2]
  mortality at 100 g/ha: 100%

## C[C@H](NC(=O)c1cc(OC(F)F)cc(C2CC2)c1)c1nc(C2CC2)nn1-c1cc(C(N)=O)ncn1 [I-153]
[1]
  pest or weed control at 32 µg/disc, 100 g/ha: 100%
[2]
  mortality at 100 g/ha: 100%

## CNC(=O)c1cc(-n2nc(C)nc2[C@H](C)NC(=O)c2cc(Cl)cc(S(C)(=O)=O)c2)ncn1 [I-62]
[3]
  mortality at 500 g/ha: 100%
[2]
  mortality at 100 g/ha: 83%

## C[C@H](NC(=O)c1cc(OC(F)(F)F)cc(S(C)(=O)=O)c1)c1nc(C2CC2)nn1-c1cc(C#N)ncn1 [I-14]
[1]
  pest or weed control at 32 µg/disc, 100 g/ha: 100%

## C[C@H](NC(=O)c1cc(Cl)cc(OC(F)(F)F)c1)c1nc(C2CC2)nn1-c1cc(C(N)=O)ncn1 [I-106]
[1]
  pest or weed control at 32 µg/disc, 100 g/ha: 100%
[2]
  mortality at 100 g/ha: 100%

## Cc1nc([C@H](C)NC(=O)c2cc(Cl)cc(C#N)c2)n(-c2cc(C(N)=O)ncn2)n1 [I-131]
[1]
  pest or weed control at 32 µg/disc, 100 g/ha: 100%
[3]
  mortality at 500 g/ha: 100%

## CC(C)N(C)C(=O)c1cc(-n2ncnc2[C@H](C)NC(=O)c2cccc(OC(F)(F)F)c2)ncn1 [I-111]
[2]
  mortality at 100 g/ha: 100%

## C[C@H](NC(=O)c1cc(OC(F)(F)F)cc(C2(C#N)CC2)c1)c1nc(C2CC2)nn1-c1cc(C#N)ncn1 [I-43]
[1]
  pest or weed control at 32 µg/disc, 100 g/ha: 80%
[2]
  mortality at 100 g/ha: 100%

## C[C@H](NC(=O)c1cc(Cl)cc(S(=O)(=O)c2ccc(Cl)cc2)c1)c1ncnn1-c1cc(C#N)ncn1 [I-11]
[1]
  pest or weed control at 32 µg/disc, 100 g/ha: 80%
[2]
  mortality at 100 g/ha: 100%

## C[C@H](NC(=O)c1cc(Cl)cc(S(=O)(=O)C(F)(F)F)c1)c1nc(C2CC2)nn1-c1cc(C(N)=O)ncn1 [I-109]
[1]
  pest or weed control at 32 µg/disc, 100 g/ha: 100%
[2]
  mortality at 100 g/ha: 100%

## C[C@H](NC(=O)c1cc(Br)cc(OC(F)F)c1)c1nc(C2CC2)nn1-c1cc(C#N)ncn1 [I-16]
[1]
  pest or weed control at 32 µg/disc, 100 g/ha: 100%

## CC(NC(=O)c1cc(OC(F)(F)F)cc(S(=O)(=O)C2CC2)c1)c1ncnn1-c1cc(C#N)ncn1 (centres unmarked) [I-9]
[2]
  mortality at 100 g/ha: 100%

## Cc1nc([C@H](C)NC(=O)c2cc(Cl)cc(S(=O)(=O)C(F)(F)F)c2)n(-c2cc(C#N)ncn2)n1 [I-24]
[1]
  pest or weed control at 32 µg/disc, 100 g/ha: 100%
[2]
  mortality at 100 g/ha: 100%

## C[C@H](NC(=O)c1cc(OC(F)(F)F)cc(S(=O)(=O)C(F)F)c1)c1nc(C2CC2)nn1-c1cc(C(N)=O)ncn1 [I-144]
[2]
  mortality at 100 g/ha: 100%

## C[C@H](NC(=O)c1cc(OC(F)(F)F)cc(OC(F)(F)F)c1)c1nc(C2CC2)nn1-c1cc(C(=O)N(C)C)ncn1 [I-165]
[1]
  pest or weed control at 32 µg/disc, 100 g/ha: 100%
[2]
  mortality at 100 g/ha: 100%

## Cc1nc([C@H](C)NC(=O)c2cc(F)cc(C#N)c2)n(-c2cc(C(N)=O)ncn2)n1 [I-96]
[3]
  mortality at 500 g/ha: 100%

## C[C@H](NC(=O)c1cc(Br)cc(C2CC2(Cl)Cl)c1)c1ncnn1-c1cc(C#N)ncn1 (some centres unmarked) [I-54]
[1]
  pest or weed control at 32 µg/disc, 100 g/ha: 100%
[2]
  mortality at 100 g/ha: 100%

## C[C@H](NC(=O)c1cc(OC(F)(F)F)cc(S(=O)(=O)C(F)(F)F)c1)c1ncnn1-c1cc(C#N)ncn1 [I-91]
[1]
  pest or weed control at 32 µg/disc, 100 g/ha: 100%
[2]
  mortality at 100 g/ha: 100%

## C[C@H](NC(=O)c1cc(C(F)(F)F)cc(C(F)(F)F)c1)c1nc(C2CC2)nn1-c1cc(C(N)=O)ncn1 [I-105]
[1]
  pest or weed control at 32 µg/disc, 100 g/ha: 100%
[2]
  mortality at 100 g/ha: 100%

## CSc1cc(OC(F)F)cc(C(=O)N[C@@H](C)c2nc(C3CC3)nn2-c2cc(C(N)=O)ncn2)c1 [I-137]
[2]
  mortality at 100 g/ha: 100%

## C[C@H](NC(=O)c1cc(S(=O)(=O)C(F)(F)F)cc(S(=O)(=O)C(F)(F)F)c1)c1nc(C2CC2)nn1-c1cc(C(N)=O)ncn1 [I-107]
[1]
  pest or weed control at 32 µg/disc, 100 g/ha: 100%
[2]
  mortality at 100 g/ha: 100%

## C[C@H](NC(=O)c1cc(Br)cc(OC(F)(F)F)c1)c1nc(C2CC2)nn1-c1cc(C(N)=O)ncn1 [I-13, 6-[5-[(1S)-1-[[3-bromo-5-(trifluoromethoxy)benzoyl]amino]ethyl]-3-cyclopropyl-1,2,4-triazol-1-yl]pyrimidine-4-carboxamide]
[1]
  pest or weed control at 32 µg/disc, 100 g/ha: 100%
[2]
  mortality at 100 g/ha: 100%

## C[C@H](NC(=O)c1cc(OC(F)(F)F)cc(S(C)(=O)=O)c1)c1nc(C2CC2)nn1-c1cc(C(N)=O)ncn1 [I-47]
[1]
  pest or weed control at 32 µg/disc, 100 g/ha: 100%
[2]
  mortality at 100 g/ha: 100%

## C[C@H](NC(=O)c1cc(OC(F)(F)F)cc(C2CC2)c1)c1nc(C2CC2)nn1-c1cc(C#N)ncn1 [I-17]
[1]
  pest or weed control at 32 µg/disc, 100 g/ha: 100%

From patent US12612386B2, “Heteroaryl-triazole compounds as pesticides” (Bayer Aktiengesellschaft, priority 2020, dated 2026)
